Measurements reported in the METLIN SMRT retention time set (Domingo-Almenara et al. 2019).

Experiment: gradient 5% acetonitrile 3 min, to 50% in 2 min, to 85% in 15 min, held 3 min, 100 µL/min
Conditions: column: Zorbax Extend-C18 2.1 x 50 mm; eluents: water / acetonitrile, 0.1% formic acid
Method in brief: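 In both positive and negative ionization mode, a quadrupole time-of-flight mass spectrometer coupled to HPLC analyzed pure standards run in mixtures of ~100 molecules. The Zorbax Extend-C18 column (2.1 × 50 mm, 1.8 μm) was operated at 100 μL/min with water and acetonitrile, each containing 0.1% formic acid. The dead volume was 40 μL and the dwell volume 900 μL. Retention time came from adduct peaks that were computationally picked and individually inspected by hand.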

Row | RP-LC retention time | SMILES
1 | 846 s | Cc1noc(-c2ccc(OC3CN(C(=O)NC4CCCCC4)C3)cc2)n1
2 | 610 s | Cc1cc(NC(C)C)n2c(nc3ccccc32)c1C#N
3 | 740 s | NC(=O)COC1CCC12CCN(C(=O)C1CCCCCC1)CC2 (configuration not stated)
4 | 676 s | CCc1noc(NC(C)=O)c1-c1ccc(OC)c(S(=O)(=O)N2CCOCC2)c1
5 | 657 s | COCCNc1nc(-c2cccc(Cl)c2)nnc1C
6 | 938 s | Cn1c(=O)c(N2CCN(C(=O)Cc3ccc(Br)cc3)CC2)nc2cccnc21
7 | 769 s | CC1=C(c2ccccc2)S(=O)(=O)N=C1N1CCCN(C(=O)C2CCC2)CC1
8 | 795 s | Cc1ccc(Nc2ncccc2S(N)(=O)=O)cc1
9 | 718 s | CC(C(O)c1ccc(O)cc1)N1CCC(Cc2ccccc2)CC1 (configuration not stated)
10 | 562 s | Cc1cccc(N2C(=O)c3cccnc3C2CC(=O)N2CCN(c3ccccn3)CC2)c1 (configuration not stated)
11 | 1070 s | CCc1cc(-c2csc(S(=O)(=O)NCc3ccc(OC(C)C)cc3)c2)on1
12 | 1030 s | Cc1cc2nn(CC(=O)N3CCc4ccccc43)c(=O)n2c(Nc2ccc(F)cc2)n1
13 | 663 s | COc1cccc(CC(=O)N2CCC(c3cc(N)on3)CC2)c1
14 | 716 s | Cc1nc(-c2ccncc2)nc2c1CC(=O)N2C1CCCCC1
15 | 729 s | COCC1CN(C(=O)c2ccoc2C)CCC1(F)F (configuration not stated)
16 | 562 s | CCc1ccccc1NC(=O)C(=O)NCC1CCN(CCOC)CC1
17 | 744 s | CN1c2cc(F)ccc2C(=O)NC12CCN(C(=O)c1ccc(F)cc1)CC2
18 | 708 s | O=C(Cc1cccs1)Nc1ccc(Nc2ccc(-n3cccn3)nn2)cc1
19 | 966 s | Cc1cc(C)c(C)c(S(=O)(=O)NCC(=O)N2CCN(c3ccccc3)CC2)c1C
20 | 981 s | Cc1ccc(CC(=O)Nc2cc(-c3nnc(C4CC4)o3)sc2C)cc1
21 | 1060 s | Cc1ccc(-c2noc(C3CC(=O)N(c4ccc(Cl)cc4)C3)n2)cc1 (configuration not stated)
22 | 866 s | CCn1ccc2sc(C)c(C(=O)NCc3ccc(SC)cc3)c2c1=O

Row | RP-LC retention time | SMILES
23 | 849 s | O=C(c1ccco1)N1CCN=C1SCc1cccc(C(F)(F)F)c1
24 | 782 s | O=C(Cn1c(=O)c(CCC(=O)NC2CCCC2)nc2ccccc21)NCc1ccccc1
25 | 884 s | CCn1c(=O)c(C)nc2cc(-c3noc(C4CC(=O)N(c5ccc(C)cc5)C4)n3)ccc21 (configuration not stated)
26 | 833 s | CCS(=O)(=O)c1nc2ccc(NS(=O)(=O)c3ccc(OC)cc3)cc2s1
27 | 579 s | Cn1nc(C(=O)N2CCCCC2)c2c1CCN(C(=O)CCC(=O)NCCCN1CCCC1)C2
28 | 855 s | CC(C)n1c(N2CCN(C(=O)COc3ccccc3)CC2)cc(=O)n(C(C)C)c1=O
29 | 644 s | CCc1ccccc1NC(=O)C(=O)c1cn(CC(=O)N2CCCC2)c2ccccc12
30 | 857 s | O=C(NCc1ccc2c(c1)OCO2)c1ccc2c(c1)N(Cc1ccccc1)C(=O)CO2
31 | 868 s | Cc1ccc(NC(=O)Cn2c(=O)n(-c3ccccc3)c(=O)c3c2cc(C)n3C)cc1F
32 | 631 s | O=C(c1ccc2c(c1)OCO2)N1CCCCC1c1nncn1CC1CC1 (configuration not stated)
33 | 1210 s | Cc1ccc(-c2noc(-c3ccccc3S(=O)(=O)N3CCCCC3)n2)cc1
34 | 804 s | CCOCc1nc(C2CCCN(C(=O)NC3CCCCC3)C2)no1 (configuration not stated)
35 | 628 s | Cc1ccsc1CN1CCn2nnc(CCC(=O)N3CCOCC3)c2C1
36 | 873 s | COc1cc(-c2nnc(-c3cccc(S(=O)(=O)N(C)C)c3)o2)cc(OC)c1OC
37 | 1230 s | CCCCCc1ccc(/C=C/C(=O)Nc2ccccc2C(=O)O)cc1
38 | 914 s | O=C(NCc1ccco1)c1ccc2c(c1)CCCN2S(=O)(=O)c1ccccc1
39 | 746 s | CC(C)CCNC(=O)N1CCN(Cc2nc3ccc(Cl)cc3o2)CC1
40 | 627 s | Cc1cccc(NC(=O)N2CCN(c3cnn4c(C)nnc4c3)CC2)c1
41 | 691 s | O=C(NC1CC1)c1nnn(-c2ccccc2)c1-c1cccnc1
42 | 1250 s | COc1cccc(-n2c(=O)c(C(=O)Nc3ccc(F)c(F)c3)c(O)c3cccnc32)c1
43 | 1150 s | CCOc1ccc(Cl)cc1S(=O)(=O)N1CCC(C(=O)Nc2ccccc2C(=O)OC)CC1
44 | 824 s | Cn1c(=O)c(C(=O)NCc2ccc(F)cc2Cl)nc2cccnc21

Row | RP-LC retention time | SMILES
45 | 1130 s | Cc1nn(C)c2nc(OCC(=O)Nc3ccccc3Cl)cc(C(F)(F)F)c12
46 | 959 s | COc1ccc(N2CC(c3noc(-c4cc(OC)cc(OC)c4)n3)CC2=O)cc1 (configuration not stated)
47 | 577 s | c1ccc(CN2CCCC(OCc3nc(-c4ccncc4)no3)C2)nc1 (configuration not stated)
48 | 1020 s | CCc1nc(-c2csc(S(=O)(=O)N3CCCC(C(=O)Nc4ccccc4Cl)C3)c2)no1 (configuration not stated)
49 | 699 s | COc1ccccc1N1CCN(C(=O)c2cn(-c3ccc(NC(=O)C4CC4)cn3)cn2)CC1
50 | 990 s | O=C(Nc1ccc(OCc2nnc(-c3ccc(Cl)cc3)o2)cc1)c1ccccn1
51 | 626 s | CCN(CC)c1ccc(NC(=O)c2cccs2)cc1C(=O)O
52 | 888 s | CCCN1C(=O)COc2ccc(-c3noc(CNS(=O)(=O)c4ccccc4)n3)cc21
53 | 819 s | CCNC(=O)c1nc(C(=O)NCc2ccc(F)c(Cl)c2)cs1
54 | 680 s | Cc1noc(C)c1Cc1c(C(=O)N2CCC3(CCC3O)CC2)noc1C (configuration not stated)
55 | 839 s | CCCc1noc(-c2ccnc(-n3ncc(C(=O)NC4CC4)c3C)c2)n1
56 | 644 s | CCc1ccc(NC(=O)c2cn3c(n2)CCCC3)cc1
57 | 702 s | Cc1ccc(NC(=O)NC2CCN(C(=O)N3C[C@H]4C[C@H](C3)[C@H]3CCCC(=O)N3C4)CC2)cc1C
58 | 1170 s | CC(C)(C)c1cc(C(=O)Nc2cccc(C#N)c2)nc2ccnn12
59 | 1140 s | CCOc1c(C(=O)OC)sc2ccc(NC(=O)c3[nH]nc4c3CCc3ccccc3-4)cc12
60 | 751 s | Cc1ccc(NC(=O)N2CCC(N3CCN(Cc4ccc(F)cc4)C(=O)C3=O)CC2)c(C)c1
61 | 772 s | COc1ccc(-n2nc(SCC(=O)Nc3ccc(F)c(F)c3)ccc2=O)cc1
62 | 670 s | COc1ccc(C(=O)N2CCC(n3c(-c4ccoc4)nc4cccnc43)C2)cc1OC (configuration not stated)
63 | 1030 s | COC(=O)c1ccccc1NC(=O)C1(c2cccs2)CCOCC1
64 | 974 s | CC(=O)N1CCc2c([nH]c3ccccc23)C12C(=O)N(CC(C)C)c1ccc(Br)cc12 (configuration not stated)

Row | SMILES | RP-LC retention time
65 | COc1cccc(-c2c(C(=O)O)nnn2Cc2ccccc2F)c1 | 776 s
66 | Cc1sc2c(c1C)C(c1ccc(Cl)cc1)=N[C@@H](CC(=O)Nc1ccc(O)cc1)c1nnc(C)n1-2 | 922 s
67 | COc1ccc2c(c1)C1(CCN(C(=O)c3cccc(Br)c3)C1)C(=O)N2 (configuration not stated) | 754 s
